These results are taken from EPA's ToxRefDB 2.

Data set [1] concerns rabbit. The settings on record: Sub-acute dermal toxicity, new zealand white, Topical, dose end: 3 week, group: systemic, systemic / pathology gross / lymph node / enlarged + systemic / pathology gross / skin / lesion(s) (nos) + systemic / pathology microscopic….
For data set [2], the system named is rat. To be noted: Subchronic oral toxicity in rodents, sprague dawley, Gavage/Intubation, dose end: 90 day, group: systemic.
The test system of data set [3] is rat. To be noted: Developmental neurotoxicity study, other, Oral, Gavage/Intubation, dose end: 140 PND, group: cannot be grouped.
In data set [4] the test system is rat. To be noted: Prenatal developmental toxicity study, sprague dawley, Oral, Gavage/Intubation, dose end: 17 GD.
Data set [5] concerns rabbit. The settings on record: Prenatal developmental toxicity study, new zealand white, Oral, Gavage/Intubation, dose end: 19 GD.
Data set [6] has as its system rat. To be noted: Subchronic oral toxicity in rodents, sprague dawley, Feed, dose end: 13 week, group: systemic, systemic / clinical chemistry / cholesterol / cholesterol + systemic / clinical chemistry / globulins / globulins + systemic / clinical ….
The subject of data set [7] is rat. The settings on record: Sub-acute repeat dose toxicity; sprague dawley; Oral; Feed; dose end: 28 day; group: systemic; systemic / clinical chemistry / cholesterol / cholesterol + systemic / clinical chemistry / triglycerides / triglycerides + systemic / ….
Data set [8] has as its system rat. The settings on record: Subchronic oral toxicity in rodents, fischer, Gavage/Intubation, dose end: 13 week, group: systemic.
For data set [9], the system named is mouse. To be noted: Subchronic oral toxicity in rodents, b6c3f1, Gavage/Intubation, dose end: 13 week, group: systemic.
Data set [10] concerns rat. To be noted: Sub-acute repeat dose toxicity; sprague dawley; Injection; Subcutaneous; dose end: 5 day; group: systemic; systemic / in life observation / clinical signs / erythema + systemic / in life observation / clinical signs / scabbing + systemic / in life….
The test system of data set [11] is mouse. To be noted: Combined chronic toxicity/carcinogenicity; b6c3f1; Oral; Gavage/Intubation; dose end: 2 year; group: systemic; systemic / pathology microscopic / liver / cytomegaly + systemic / pathology microscopic / liver / hyperplasia + systemic / pathology ….
Data set [12] deals with mouse. The settings on record: Subchronic oral toxicity in rodents, b6c3f1, Gavage/Intubation, dose end: 13 week, group: systemic. The source holds these as a separate data set.
In data set [13] the test system is rat. To be noted: Subchronic oral toxicity in rodents, fischer, Gavage/Intubation, dose end: 13 week, group: systemic. The source holds these as a separate data set.
Data set [14] concerns rat. To be noted: Combined chronic toxicity/carcinogenicity, fischer, Oral, Gavage/Intubation, dose end: 2 year, group: systemic.
The test system of data set [15] is rat. The settings on record: Chronic toxicity; fischer; Oral; Feed; dose end: 115 week; group: systemic; systemic / hematology / erythrocyte (rbc) count differential / erythrocyte (rbc) + systemic / hematology / hematocrit (hct) / hematocrit (….
Data set [16] concerns mouse. To be noted: Carcinogenicity, b6c3f1, Oral, Water, dose end: 105 week, group: systemic.
For data set [17], the system named is rat. To be noted: Carcinogenicity; fischer; Oral; Water; dose end: 104 week; group: systemic; systemic / in life observation / body weight / body weight.
Data set [18] has as its system rat. To be noted: Carcinogenicity, fischer, Oral, Water, dose end: 105 week, group: systemic.
Data set [19] deals with rat. To be noted: Subchronic oral toxicity in rodents, fischer, Water, dose end: 14 week, group: systemic.
Data set [20] concerns rat. The settings on record: Subchronic oral toxicity in rodents, fischer, Water, dose end: 6 week, group: systemic.
The subject of data set [21] is rat. The settings on record: Developmental neurotoxicity study; sprague dawley; Oral; Feed; dose end: 90 PND; group: cannot be grouped; reproductive / offspring survival early / dead fetuses / dead fetuses + systemic / in life observation / body weight / offspring (pup) ….
In data set [22] the test system is mouse. The settings on record: Subchronic oral toxicity in rodents, b6c3f1, Water, dose end: 14 week.
Where [23] appears, read: systemic / clinical chemistry / [other] / [other] + systemic / clinical chemistry / chloride / chloride + systemic / clinical chemistry / ….
Where [24] appears, read: systemic / pathology gross / thymus / discolored.
Setting [25] is: reproductive / offspring survival early / birth index / birth index + reproductive / reproductive performance / gestational length / ….
Where [26] appears, read: systemic / in life observation / body weight / offspring (pup) weight + systemic / organ weight / thymus / relative to body weight.
The mark [27] stands for this setting: group: developmental, developmental / developmental malformation / bone / wavy + developmental / developmental malformation / kidney / [other] + developmental / ….
Setting [28] is: group: maternal, reproductive / reproductive performance / resorptions / resorptions + systemic / in life observation / body weight / body weight gain + ….
Where [29] appears, read: group: maternal, systemic / in life observation / body weight / body weight gain + systemic / in life observation / food consumption / food consumption.
Setting [30] is: group: developmental, developmental / developmental malformation / heart / atrial septum defect.
[31] abbreviates: systemic / hematology / anemia / anemia - macrocytic + systemic / hematology / erythrocyte (rbc) count differential / erythrocyte (rbc) + ….
Setting [32] is: systemic / hematology / methemoglobin / methemoglobin.
Where [33] appears, read: systemic / hematology / anemia / anemia - normocytic + systemic / hematology / erythrocyte (rbc) count differential / erythrocyte (rbc) + ….
The mark [34] stands for this setting: systemic / in life observation / body weight / body weight gain + systemic / in life observation / clinical signs / prostration + systemic….
Setting [35] is: systemic / in life observation / body weight / body weight gain + systemic / organ weight / liver / absolute + systemic / organ weight / ….
Setting [36] is: systemic / in life observation / body weight / body weight + systemic / in life observation / clinical signs / labored respiration + ….
[37] abbreviates: systemic / in life observation / body weight / body weight + systemic / organ weight / kidney / absolute + systemic / organ weight / kidney….
The mark [38] stands for this setting: systemic / pathology microscopic / kidney / pigmentation + systemic / pathology microscopic / nose / pigmentation.
Setting [39] is: systemic / in life observation / body weight / body weight + systemic / pathology microscopic / stomach / hyperplasia.
Setting [40] is: systemic / in life observation / water consumption / water consumption.
[41] abbreviates: systemic / hematology / methemoglobin / methemoglobin + systemic / clinical chemistry / urea nitrogen / urea nitrogen.
[42] abbreviates: systemic / hematology / methemoglobin / methemoglobin + systemic / in life observation / body weight / body weight gain + systemic / in life….
[43] abbreviates: group: maternal, reproductive / reproductive performance / estrous cycle / length.
[44] abbreviates: group: systemic, systemic / in life observation / body weight / body weight + systemic / in life observation / body weight / body weight gain + systemic / ….

Bounds are passed on as bounds.

As usually defined, the LOAEL is the lowest dose or exposure tested at which an adverse effect was seen. In general, NOAEL refers to the highest dose or exposure tested at which no adverse effect was seen. Take `Cc1ccc(O)c(C)c1` [2,4-Dimethylphenol]: in data set [1], the LEL was 1200 mg/kg/day, the LOAEL was greater than 2400 mg/kg/day, the NEL was less than 1200 mg/kg/day and the NOAEL is no less than 2400 mg/kg/day. In addition, in data set [2] (setting [23]), the LOAEL was greater than 540 mg/kg/day and the NOAEL was no less than 540 mg/kg/day. In addition, in data set [2] (setting [24]), the LEL was 60 mg/kg/day and the NEL was less than 60 mg/kg/day.

Consider `Cl.O=C(c1ccc(OCCN2CCCCC2)cc1)c1c(-c2ccc(O)cc2)sc2cc(O)ccc12` [Raloxifene hydrochloride], for which the LOAEL in [3] (setting [25]), in data set [4] (setting [27]), in data set [4] (setting [28]), in data set [5] (setting [30]) and in data set [5] (setting [29]) was greater than 10 mg/kg/day in each case. In addition, the NOAEL in data set [3] (setting [25]), in [4] (setting [27]), in data set [4] (setting [28]), in [5] (setting [30]) and in [5] (setting [29]) was no less than 10 mg/kg/day each time. Moreover, the LEL in data set [3] (setting [26]) worked out at 0.1 mg/kg/day; in [4] (group: developmental, developmental / developmental malformation / bone / wavy + developmental / developmental malformation / kidney / [other]) it was 1 mg/kg/day; in data set [4] (setting [29]), 0.1 mg/kg/day; in data set [5] (setting [30]), 0.1 mg/kg/day; in [5] (setting [29]) it was 10 mg/kg/day. The NEL in data set [3] (setting [26]) was less than 0.1 mg/kg/day; in data set [4] (setting [27]), 0.1 mg/kg/day; in data set [4] (setting [29]), less than 0.1 mg/kg/day; in data set [5] (setting [30]) it was less than 0.1 mg/kg/day; in [5] (setting [29]) it was 1 mg/kg/day.

Regarding `O=B[O-].O=B[O-].[Ba+2]` [Barium metaborate], in [6], the LEL amounted to 349 mg/kg/day, the LOAEL is 349 mg/kg/day, the NEL was 70 mg/kg/day and the NOAEL turned out to be 70 mg/kg/day. Besides, in [7], the LEL is 881 mg/kg/day, the LOAEL is 881 mg/kg/day, the NEL amounted to 459 mg/kg/day and the NOAEL stood at 459 mg/kg/day.

For the compound `Nc1ccccc1Cl` [2-Chloroaniline], in [8] (setting [31]), the LOAEL is 80 mg/kg/day and the NOAEL turned out to be 40 mg/kg/day. In [8] (setting [32]), the LEL was found to be 10 mg/kg/day and the NEL is less than 10 mg/kg/day. In addition, in data set [9] (setting [33]), the LOAEL was determined as 80 mg/kg/day and the NOAEL is 40 mg/kg/day. In addition, in data set [9] (setting [32]), the LEL is 10 mg/kg/day and the NEL was less than 10 mg/kg/day.

Regarding `COCc1nnc(-c2ccc[n+]([O-])c2)n1-c1c(Cl)c(Cl)cc2[nH]c(=O)c(=O)[nH]c12`, in data set [10], the LEL worked out at 20 mg/kg/day, the LOAEL was greater than 20 mg/kg/day, the NEL is less than 20 mg/kg/day and the NOAEL was no less than 20 mg/kg/day.

On to `COc1c(Cl)c(Cl)c(Cl)c(Cl)c1Cl` [Pentachloroanisole], for which the LEL was determined as 20 mg/kg/day in data set [11], 40 mg/kg/day in data set [12] (setting [35]), 40 mg/kg/day in [13] (setting [37]) and 10 mg/kg/day in data set [14] (setting [38]). The LOAEL was 20 mg/kg/day in [11], greater than 180 mg/kg/day in [12] (setting [34]), greater than 180 mg/kg/day in data set [13] (setting [36]) and 40 mg/kg/day in [14] (systemic / in life observation / body weight / body weight + systemic / pathology microscopic / adrenal gland / hyperplasia). The NEL is less than 20 mg/kg/day in data set [11], less than 40 mg/kg/day in data set [12] (setting [35]), less than 40 mg/kg/day in data set [13] (setting [37]) and less than 10 mg/kg/day in [14] (setting [38]). For the same compound, the NOAEL in data set [11] was less than 20 mg/kg/day; in [12] (setting [34]), no less than 180 mg/kg/day; in data set [13] (setting [36]), no less than 180 mg/kg/day; in data set [14] (systemic / in life observation / body weight / body weight + systemic / pathology microscopic / adrenal gland / hyperplasia + systemic / …), 20 mg/kg/day.

For `O=N[O-].[Na+]` [Sodium nitrite], the LEL in data set [15] was found to be 100 mg/kg/day; in [16] (setting [40]) it was 45 mg/kg/day; in [17], 125 mg/kg/day; in data set [18] (setting [40]), 35 mg/kg/day; in data set [19] (setting [41]), 30 mg/kg/day; in data set [20] (systemic / hematology / methemoglobin / methemoglobin + systemic / in life observation / mortality / mortality + systemic / pathology gross…) it was 250 mg/kg/day. Besides, the LEL came out at 12.5 mg/kg/day in data set [21]; 445 mg/kg/day in data set [22] (setting [43]); 345 mg/kg/day in [22] (group: systemic, systemic / in life observation / water consumption / water consumption). The lowest observed adverse effect level (LOAEL) was greater than 250 mg/kg/day in data set [15]; 165 mg/kg/day in data set [16] (setting [39]); greater than 125 mg/kg/day in [17]; 130 mg/kg/day in data set [18] (setting [39]); 30 mg/kg/day in [19] (setting [32]); greater than 500 mg/kg/day in data set [20] (setting [42]). Further, the LOAEL in data set [21] was greater than 25 mg/kg/day; in data set [22] (setting [43]) it was greater than 1230 mg/kg/day; in data set [22] (setting [44]), 990 mg/kg/day. The NEL is less than 100 mg/kg/day in data set [15]; less than 45 mg/kg/day in data set [16] (setting [40]); 62.5 mg/kg/day in data set [17]; less than 35 mg/kg/day in data set [18] (setting [40]); less than 30 mg/kg/day in [19] (setting [41]); 125 mg/kg/day in data set [20] (setting [42]). Also, the NEL in data set [21] turned out to be 6.25 mg/kg/day; in data set [22] (setting [43]), 240 mg/kg/day; in data set [22] (setting [44]), 190 mg/kg/day. In addition, the NOAEL in [15] was no less than 250 mg/kg/day; in data set [16] (systemic / in life observation / body weight / body weight + systemic / pathology microscopic / stomach / hyperplasia + systemic / pathology…), 90 mg/kg/day; in [17] it was no less than 125 mg/kg/day; in data set [18] (systemic / in life observation / body weight / body weight + systemic / pathology microscopic / stomach / hyperplasia + systemic / in life …), 70 mg/kg/day; in data set [19] (setting [32]), less than 30 mg/kg/day; in data set [20] (setting [42]) it was no less than 500 mg/kg/day. Further, the values for the NOAEL in [21], in data set [22] (setting [43]) and in data set [22] (setting [44]) were no less than 25 mg/kg/day, no less than 1230 mg/kg/day and 750 mg/kg/day, respectively.
